{"source": "patent US20260001914A1", "about": "“MACROCYCLIC PEPTIDES TARGETING KRAS” (Merck Sharp & Dohme LLC, priority 2022, published 2026)", "note": "*1 amine or outer side, *2 acyl side, *3 side chain or, on linkers, in order; H or OH if unused. Where a SMILES comes first, the peptide text is derived from it. Bridges are numbered along the chain shown (N, C = ends). [ ]: non-standard residue; d: D form. NMeNva(5-imidazol-1-yl) = CN[C@@H](CCCn1ccnc1)C(=O)O; Phe(4-guanidino) = N=C(N)Nc1ccc(C[C@H](N)C(=O)O)cc1; X22 = CNC(=N)N(C)CCC[C@@H](C(=O)[*:2])N(C)[*:1]; Ala(pyrimidin-5-yl) = N[C@@H](Cc1cncnc1)C(=O)O; NMe3Pal(5-F) = CN[C@@H](Cc1cncc(F)c1)C(=O)O; X45 = CN([C@@H](Cc1ccncc1F)C(=O)[*:2])[*:1]; X25 = O=C([C@H](Cc1ccc(F)nc1)N[*:1])[*:2]; Abu(4,4,4-F3) = N[C@@H](CC(F)(F)F)C(=O)O; NMeNva(5,5-F2) = CN[C@@H](CCC(F)F)C(=O)O; X46 = O=C([C@H](Cc1cccnc1F)N[*:1])[*:2]; Nle(5,5-F2) = CC(F)(F)CC[C@H](N)C(=O)O; Phe(4-F) = N[C@@H](Cc1ccc(F)cc1)C(=O)O; X2 = O=C([C@H](Cc1ccccc1F)O[*:1])[*:2]; X47 = O=C([C@H](Cc1ccoc1)N[*:1])[*:2]; X61 = O=C(C12COC(CN[*:1])(C1)C2)[*:2]; Phe(2-F) = N[C@@H](Cc1ccccc1F)C(=O)O; NMe3Pal = CN[C@@H](Cc1cccnc1)C(=O)O; X1 = O=C(C12CC(CN[*:1])(C1)C2)[*:2]; Ala(cPr) = N[C@@H](CC1CC1)C(=O)O; NMeF = CN[C@@H](Cc1ccccc1)C(=O)O; PhLac = O=C(O)[C@@H](O)Cc1ccccc1; 3Pal = N[C@@H](Cc1cccnc1)C(=O)O; 4Pal = N[C@@H](Cc1ccncc1)C(=O)O; d3Pal = N[C@H](Cc1cccnc1)C(=O)O; Ahp(2) = CCCCC[C@H](N)C(=O)O; Ala(CN) = N#CC[C@H](N)C(=O)O; Cba = N[C@@H](CC1CCC1)C(=O)O; hLeu = CC(C)CC[C@H](N)C(=O)O; αMeC = C[C@](N)(CS)C(=O)O; NMeA = CN[C@@H](C)C(=O)O; Nle = CCCC[C@H](N)C(=O)O; Pra = C#CC[C@H](N)C(=O)O; Nva = CCC[C@H](N)C(=O)O"}
{"target": "KRAS-G12D protein (Homo sapiens, UniProt P01116, G12D)", "sequence (P01116 1-188 isoform P01116-2 G12D)": "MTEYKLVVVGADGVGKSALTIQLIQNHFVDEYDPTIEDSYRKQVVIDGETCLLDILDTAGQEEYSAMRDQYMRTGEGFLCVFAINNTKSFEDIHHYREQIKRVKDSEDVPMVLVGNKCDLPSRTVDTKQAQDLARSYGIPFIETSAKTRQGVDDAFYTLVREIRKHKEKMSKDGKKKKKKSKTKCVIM", "assay": "SOS-mediated nucleotide exchange assay (BODIPY-GDP / Tb-streptavidin TR-FRET)", "assay_type": "biochemical", "units": {"EC50": "µM"}}
{"smiles": "CC(C)CC[C@@H]1NC(=O)[C@H](Cc2ccccc2F)NC(=O)[C@H](CC2CC2)NC(=O)[C@H](Cc2cncnc2)NC(=O)[C@H](CCC(F)F)N(C)C(=O)[C@H](Cc2ccccc2)OC(=O)C23CC(CNC(=O)[C@H](Cc4ccccc4)N(C)C1=O)(C2)C3", "note": "[compound 217, cyclo(FLac-NMeNvaF2-PyrimAla-cPrA-Phe2F-hL-NMeF-amBCP)] (cyclo([Ala(cPr)][Phe(2-F)][hLeu][NMeF][X1][PhLac][NMeNva(5,5-F2)][Ala(pyrimidin-5-yl)]))", "EC50": 0.173}
{"smiles": "CCC[C@@H]1NC(=O)[C@H](Cc2ccc(OC)cc2)NC(=O)[C@H](CC(C)C)NC(=O)[C@H](Cc2ccncc2)NC(=O)[C@H](CCCNC(=N)N)NC(=O)[C@H](Cc2ccc(F)cc2)NC(=O)CSC[C@H](C(=O)NCC(=O)O)NC(=O)[C@H](Cc2ccccc2)N(C)C1=O", "note": "[compound 65, cyclo(Phe4F-R-4Pal-L-TyrOMe-Nva-NMeF-dC5-ClAc)] ({CH2CO}-[Phe(4-F)]R[4Pal]LY(Me)[Nva][NMeF][dC]G-OH; thioether N-8)", "EC50": 0.0702}
{"smiles": "CCCC[C@@H]1NC(=O)[C@H](Cc2cccnc2)NC(=O)[C@H](CC#N)NC(=O)[C@H](Cc2ccccc2)OC(=O)C23CC(CNC(=O)[C@H](Cc4cccnc4)N(C)C(=O)[C@H](CCCC)NC(=O)[C@H](Cc4ccccc4F)NC1=O)(C2)C3", "note": "[compound 252, cyclo(FLac-AlaCN-3Pal-Nle-Phe2F-Nle-NMe3Pal-amBCP)] (cyclo([3Pal][Nle][Phe(2-F)][Nle][NMe3Pal][X1][PhLac][Ala(CN)]))", "EC50": 3.75}
{"smiles": "C[C@H]1C(=O)N[C@@H](Cc2cccnc2)C(=O)N[C@@H](CC2CCC2)C(=O)N[C@@H](Cc2ccccc2F)C(=O)N[C@@H](CCC(C)(F)F)C(=O)N(C)[C@@H](Cc2cncc(F)c2)C(=O)NCC23CC(C2)(C3)C(=O)O[C@@H](Cc2ccccc2)C(=O)N1C", "note": "[compound 285, cyclo(FLac-NMeA-3Pal-cBuA-Phe2F-Nle3F2-NMe3Pal5F-amBCP)] (cyclo([3Pal][Cba][Phe(2-F)][Nle(5,5-F2)][NMe3Pal(5-F)][X1][PhLac][NMeA]))", "EC50": 0.013}
{"smiles": "CCCC[C@@H]1NC(=O)[C@H](Cc2cccnc2)NC(=O)[C@H](C)N(C)C(=O)[C@H](Cc2ccc(F)nc2)NC(=O)C23CC(CNC(=O)[C@H](Cc4cccnc4)N(C)C(=O)[C@H](CCCC)NC(=O)[C@H](Cc4ccccc4F)NC1=O)(C2)C3", "note": "[compound 165, cyclo(4F3Pal-NMeA-3Pal-Nle-Phe2F-Nle-NMe3Pal-amBCP)] (cyclo([3Pal][Nle][Phe(2-F)][Nle][NMe3Pal][X1][X25][NMeA]))", "EC50": 1.78}
{"smiles": "CCCC[C@@H]1NC(=O)[C@H](Cc2ccc(OC)cc2)NC(=O)[C@H](CC2CCC2)NC(=O)[C@H](Cc2cccnc2)NC(=O)[C@H](CCCNC(=N)N)NC(=O)[C@H](Cc2ccccc2)NC(=O)C2CCC3(CN(C3)C(=O)[C@H](Cc3ccccc3)N(C)C1=O)O2", "note": "(single isomer, unassigned) [compound 100, cyclo(F-R-3Pal-cBuA-TyrOMe-Nle-NMeF-spiro54)]", "EC50": 0.656}
{"smiles": "CCCC[C@@H]1NC(=O)[C@H](CC(F)(F)F)NC(=O)[C@H](CC2CCC2)NC(=O)[C@H](Cc2cccnc2)NC(=O)[C@H](CCCNC(=N)N)NC(=O)[C@H](Cc2ccccc2)NC(=O)CSC[C@@](C)(C(N)=O)NC(=O)[C@H](Cc2ccccc2)N(C)C1=O", "note": "[compound 54, cyclo(F-R-3Pal-cBuA-AbuF3-Nle-NMeF-aMeCl-ClAc)] ({CH2CO}-FR[3Pal][Cba][Abu(4,4,4-F3)][Nle][NMeF][αMeC]-NH2; thioether N-8)", "EC50": 0.861}
{"smiles": "CCCC[C@@H]1NC(=O)[C@H](Cc2cncnc2)NC(=O)[C@H](CCCn2ccnc2)N(C)C(=O)[C@H](Cc2ccccc2)OC(=O)C23CC(CNC(=O)[C@H](Cc4cccnc4)N(C)C(=O)[C@H](CCCC)NC(=O)[C@H](Cc4ccccc4F)OC1=O)(C2)C3", "note": "[compound 246, cyclo(FLac-NMeNvalmid-PyrimAla-Nle-F2FLac-Nle-NMe3Pal-amBCP)] (cyclo([NMe3Pal][X1][PhLac][NMeNva(5-imidazol-1-yl)][Ala(pyrimidin-5-yl)][Nle][X2][Nle]))", "EC50": 1.16}
{"smiles": "CCCCC[C@@H]1NC(=O)[C@H](Cc2ccc(OC)cc2)NC(=O)[C@H](CC2CCC2)NC(=O)[C@H](Cc2ccc(NC(=N)N)cc2)NC(=O)[C@H](CCCN(C)C(=N)NC)N(C)C(=O)[C@H](Cc2ccccc2)NC(=O)CSC[C@@](C)(C(N)=O)NC(=O)[C@H](Cc2ccccc2)N(C)C1=O", "note": "[compound 381, cyclo(F-NMeArg1MeMe-Phe4Gn-cBuA-TyrOMe-Ahp-NMeF-aMeCl-ClAc)] ({CH2CO}-F[X22][Phe(4-guanidino)][Cba]Y(Me)[Ahp(2)][NMeF][αMeC]-NH2; thioether N-8)", "EC50": 0.00169}
{"smiles": "CCCCC[C@@H]1NC(=O)[C@H](Cc2ccc(O)cc2)NC(=O)[C@H](CCCC)NC(=O)[C@H](Cc2ccc(O)cc2)NC(=O)[C@H](CCCNC(=N)N)NC(=O)[C@H](Cc2ccccc2)NC(=O)CSC[C@@H](C(N)=O)NC(=O)[C@H](Cc2ccccc2)N(C)C1=O", "note": "[compound 12, cyclo(F-R-Y-Nle-Y-Ahp-NMeF-Cl-ClAc)] ({CH2CO}-FRY[Nle]Y[Ahp(2)][NMeF]C-NH2; thioether N-8)", "EC50": 1.19}
{"smiles": "CCCC[C@@H]1NC(=O)[C@H](Cc2ccc(O)cc2)NC(=O)[C@H](CC2CCCCC2)NC(=O)[C@H](CCCCN)NC(=O)[C@H](CCCNC(=N)N)NC(=O)[C@H](Cc2cccc3ccccc23)NC(=O)CSC[C@H](C(N)=O)NC(=O)[C@H](Cc2ccccc2)N(C)C1=O", "note": "[compound 139, cyclo(INal-R-K-Cha-Y-Nle-NMeF-dCl-ClAc)]", "EC50": 5.99}
{"smiles": "CC(C)CC[C@@H]1NC(=O)[C@H](Cc2cccnc2F)NC(=O)[C@H](CC2CC2)NC(=O)[C@H](Cc2cncnc2)NC(=O)[C@H](C)N(C)C(=O)[C@H](Cc2ccccc2)OC(=O)C23CC(CNC(=O)[C@H](Cc4ccccc4)N(C)C1=O)(C2)C3", "note": "[compound 215, cyclo(FLac-NMeA-PyrimAla-cPrA-3Pal2F-hL-NMeF-amBCP)] (cyclo([Ala(cPr)][X46][hLeu][NMeF][X1][PhLac][NMeA][Ala(pyrimidin-5-yl)]))", "EC50": 0.031}
{"smiles": "C#CC[C@@H]1NC(=O)[C@H](CC2CCC2)NC(=O)[C@H](Cc2cccnc2)NC(=O)[C@H](CCCNC(=N)N)NC(=O)[C@H](Cc2ccccc2)NC(=O)CSC[C@@](C)(C(N)=O)NC(=O)[C@H](Cc2ccccc2)N(C)C(=O)[C@H](CCCC)NC1=O", "note": "[compound 51, cyclo(F-R-3Pal-cBuA-Pra-Nle-NMeF-aMeCl-ClAc)] ({CH2CO}-FR[3Pal][Cba][Pra][Nle][NMeF][αMeC]-NH2; thioether N-8)", "EC50": 0.298}
{"smiles": "CC(C)CC[C@@H]1NC(=O)[C@H](Cc2ccccc2F)NC(=O)[C@H](CC2CC2)NC(=O)[C@H](Cc2cncnc2)NC(=O)[C@H](C)N(C)C(=O)[C@H](Cc2ccccc2)OC(=O)C23CC(CNC(=O)[C@H](Cc4ccncc4F)N(C)C1=O)(C2)C3", "note": "[compound 337, cyclo(FLac-NMeA-PyrimAla-cPrA-Phe2F-hL-NMe4Pal2F-amBCP)] (cyclo([Ala(cPr)][Phe(2-F)][hLeu][X45][X1][PhLac][NMeA][Ala(pyrimidin-5-yl)]))", "EC50": 0.003}
{"smiles": "CCCCC[C@@H]1NC(=O)[C@H](Cc2ccc(OC)cc2)NC(=O)[C@H](CC2CCC2)NC(=O)[C@H](Cc2cccnc2)NC(=O)[C@H](C)N(C)C(=O)[C@H](Cc2ccccc2)OC(=O)C23CC(CNC(=O)[C@H](Cc4ccccc4)N(C)C1=O)(C2)C3", "note": "[compound 227, cyclo(FLac-NMeA-3Pal-cBuA-TyrOMe-Ahp-NMeF-amBCP)] (cyclo([3Pal][Cba]Y(Me)[Ahp(2)][NMeF][X1][PhLac][NMeA]))", "EC50": 0.0379}
{"smiles": "CCCCC[C@@H]1NC(=O)[C@H](Cc2ccoc2)NC(=O)[C@H](CC2CCC2)NC(=O)[C@H](Cc2cccnc2)NC(=O)[C@H](CCCNC(=N)N)NC(=O)[C@H](Cc2ccccc2)NC(=O)CSC[C@@](C)(C(N)=O)NC(=O)[C@H](Cc2ccccc2)N(C)C1=O", "note": "[compound 374, cyclo(F-R-3Pal-cBuA-Ala3Fur-Ahp-NMeF-aMeCl-ClAc)] ({CH2CO}-FR[3Pal][Cba][X47][Ahp(2)][NMeF][αMeC]-NH2; thioether N-8)", "EC50": 0.0698}
{"smiles": "CCCC[C@@H]1NC(=O)[C@H](Cc2ccccc2F)NC(=O)[C@H](CC2CCC2)NC(=O)[C@@H](Cc2cccnc2)NC(=O)[C@H](CCCNC(=N)N)NC(=O)[C@H](Cc2ccccc2)NC(=O)C23COC(CNC(=O)[C@H](Cc4cccnc4)N(C)C1=O)(C2)C3", "note": "[compound 106, cyclo(F-R-d3Pal-cBuA-Phe2F-Nle-NMe3Pal-amOBCH)] (cyclo(FR[d3Pal][Cba][Phe(2-F)][Nle][NMe3Pal][X61]))", "EC50": 6.82}
